Measured values: PubChem BioAssay (NCI)
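Grown in 96-well plates, cells were treated for 48 hours with each compound at five concentrations. Insufficient inhibition: endpoint recorded as highest concentration tested. GI50: concentration for 50% inhibition of growth. TGI is the concentration that stops growth completely.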

Columns and labels:
Experiment in all cases: DTP human tumour cell line panel, 48 h
ACHN renal = system: ACHN renal
CCRF-CEM leukemia = system: CCRF-CEM leukemia
COLO 205 colon = system: COLO 205 colon
HCT-15 colon = system: HCT-15 colon
IGROV1 ovarian = system: IGROV1 ovarian
K-562 leukemia = system: K-562 leukemia
NCI-H522 lung = system: NCI-H522 lung
SK-MEL-2 melanoma = system: SK-MEL-2 melanoma
SK-MEL-5 melanoma = system: SK-MEL-5 melanoma
BT-549 breast = system: BT-549 breast

Compound	GI50 (ACHN renal)	TGI (ACHN renal)	GI50 (CCRF-CEM leukemia)	TGI (CCRF-CEM leukemia)	GI50 (COLO 205 colon)	TGI (COLO 205 colon)	GI50 (HCT-15 colon)	TGI (HCT-15 colon)	GI50 (IGROV1 ovarian)	TGI (IGROV1 ovarian)	GI50 (K-562 leukemia)	TGI (K-562 leukemia)	GI50 (NCI-H522 lung)	TGI (NCI-H522 lung)	GI50 (SK-MEL-2 melanoma)	TGI (SK-MEL-2 melanoma)	GI50 (SK-MEL-5 melanoma)	TGI (SK-MEL-5 melanoma)	GI50 (BT-549 breast)	TGI (BT-549 breast)
[CH3][Hg]/[N]=C(/N)NC#N	13.5 µM	26.4 µM	3.65 µM	> 100 µM	1.71 µM	3.09 µM	3.02 µM	12.1 µM	18.9 µM	36.6 µM	1.69 µM	> 100 µM	1.29 µM	2.57 µM	3.65 µM	26.7 µM	8.9 µM	21.1 µM	–	–
O=C(CC1(O)C(=O)Nc2ccccc21)c1ccccc1O (stereo not given)	–	> 100 µM	–	–	–	> 100 µM	–	> 100 µM	–	> 100 µM	–	> 100 µM	–	> 100 µM	–	> 100 µM	–	> 100 µM	–	–
O=C(CC(=O)c1cccc([N+](=O)[O-])c1)C(=O)Nc1ccccc1	–	> 100 µM	–	> 100 µM	–	–	–	> 100 µM	–	> 100 µM	–	> 100 µM	–	> 100 µM	–	> 100 µM	–	> 100 µM	–	–
Cc1ccc(NC(=O)CC2SC(=Nc3ccc(Cl)cc3)NC2=O)cc1C (stereo not given)	–	29.6 µM	–	11 µM	–	32.4 µM	–	29.3 µM	–	> 60.8 µM	–	> 58.5 µM	–	18.4 µM	–	17.9 µM	–	36.6 µM	–	–
CN1C2(c3ccccc3)C(C(=O)c3ccccc3)=C(C(=O)c3ccccc3)C1(c1ccccc1)c1c(-c3ccccc3)sc(-c3ccccc3)c12	–	> 100 µM	–	> 100 µM	–	> 100 µM	–	> 100 µM	–	> 100 µM	–	> 100 µM	–	> 100 µM	–	–	–	> 100 µM	–	–
Cc1cc(C)nc(NS(=O)(=O)c2ccc(NC(=O)COC(=O)c3cccc4c(=O)c5ccccc5[nH]c34)cc2)n1	–	> 100 µM	–	87.7 µM	–	> 100 µM	–	> 100 µM	–	> 100 µM	–	98.8 µM	–	70.9 µM	–	–	–	> 100 µM	–	–
Cc1ccccc1-n1c(CCl)nc2ccc(Br)cc2c1=O	–	83.8 µM	–	4.78 µM	–	26.4 µM	–	14.4 µM	–	33.1 µM	–	–	–	5.83 µM	–	32.5 µM	–	22.9 µM	–	–
O=C(Cc1nc2ccccc2o1)C(=O)Nc1ccc(Cl)cc1Cl	–	> 100 µM	–	–	–	> 100 µM	–	> 100 µM	–	> 100 µM	–	> 100 µM	–	–	–	> 100 µM	–	–	–	–
CCn1ncc(N=O)c1N	–	> 100 µM	–	> 100 µM	–	> 100 µM	–	> 100 µM	–	> 100 µM	–	> 100 µM	–	> 100 µM	–	> 100 µM	–	> 100 µM	–	–
CCc1ccccc1NC(=O)C(=O)C1C(=O)N(c2ccccc2)N=C1N (stereo not given)	–	> 100 µM	–	–	–	–	–	> 100 µM	–	> 100 µM	–	> 100 µM	–	–	–	> 100 µM	–	> 100 µM	–	–
COc1cc(C)[nH]c(=O)c1CNC(=O)c1c(C)n([C@H](C)C2CCN(CC(F)(F)F)CC2)c2ccccc12	–	–	50.4 µM	> 100 µM	–	–	44 µM	> 100 µM	49.2 µM	> 100 µM	48.5 µM	> 100 µM	80.3 µM	> 100 µM	47.3 µM	> 100 µM	19 µM	54.4 µM	33.6 µM	> 100 µM
NC(=O)c1csc(-c2ccc(CO)o2)n1	–	> 100 µM	–	–	–	> 100 µM	–	> 100 µM	–	> 100 µM	–	> 100 µM	–	> 100 µM	–	> 100 µM	–	> 100 µM	–	> 100 µM
Cc1cc(-c2cc(OC(=O)c3ccccc3)ccc2Cl)cc2nnc(Nc3ccc(OCCN4CCCC4)cc3)nc12	1.35 µM	2.63 µM	–	–	1.68 µM	3.6 µM	0.197 µM	0.393 µM	1.76 µM	3.78 µM	0.0472 µM	0.324 µM	1.37 µM	3.08 µM	1.78 µM	3.45 µM	1.52 µM	2.89 µM	2.67 µM	6.68 µM
N#C/C(=C\c1ccc[nH]1)C(=O)c1ccccc1	–	> 100 µM	–	> 100 µM	–	> 100 µM	–	> 100 µM	–	–	–	> 100 µM	–	> 100 µM	–	> 100 µM	–	> 100 µM	–	–
Cc1c(C(=O)c2ccccc2)[n+](=O)c2cc(F)c(F)cc2n1[O-]	1.66 µM	3.02 µM	1.18 µM	2.89 µM	3.31 µM	11.5 µM	0.511 µM	1.64 µM	1.32 µM	5.33 µM	1.97 µM	> 100 µM	1.93 µM	3.88 µM	–	–	2.03 µM	4.24 µM	2.04 µM	4.39 µM
COC(=O)C1=CC(=O)[C@@H]2CCCC[C@H]12	–	> 100 µM	–	> 100 µM	–	> 100 µM	–	> 100 µM	–	–	–	> 100 µM	–	> 100 µM	–	> 100 µM	–	–	–	–
Cc1cc(C)c(/C=N/NS(=O)(=O)c2ccccc2)c(C)c1	–	> 100 µM	–	> 100 µM	–	> 100 µM	–	> 100 µM	–	> 100 µM	–	> 100 µM	–	–	–	> 100 µM	–	> 100 µM	–	–
C[C@]12CCc3nn(-c4ccccc4)nc3C1CC[C@@H]1C2CC[C@]2(C)C(=O)CCC12 (stereo not given in full)	–	> 100 µM	–	> 100 µM	–	> 100 µM	–	> 100 µM	–	> 100 µM	–	> 100 µM	–	> 100 µM	–	> 100 µM	–	> 100 µM	–	–
COC(=O)Nc1nc2ccc(C(=O)c3ccc(F)cc3)cc2[nH]1	1.05 µM	> 100 µM	–	–	0.152 µM	0.554 µM	0.0909 µM	> 100 µM	0.513 µM	> 66.1 µM	–	–	0.311 µM	–	4.14 µM	> 49.8 µM	0.242 µM	> 24.2 µM	2.44 µM	> 100 µM
COC(=O)C(C(=O)C(=O)Nc1ccccc1C)c1nc2ccc([N+](=O)[O-])cc2[nH]c1=O (stereo not given)	–	> 100 µM	–	> 100 µM	–	> 100 µM	–	> 100 µM	–	> 100 µM	–	> 100 µM	–	> 100 µM	–	> 100 µM	–	> 100 µM	–	–
